Source: US20250346585A1 (Alexion Pharmaceuticals, Inc., priority 2022, published 2025)
pIC50: −log10 of the molar value. Like-named read-outs stand apart in the source and are kept apart here.

Target: Human complement C1s enzyme (Homo sapiens (Human), UniProt P09871)
Assay: Human C1s enzyme assay
Assay type: biochemical
Settings: read-out: IC50 (Stars)
Procedure, shortened: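 Purified serum-derived human C1s (1.16 nM final) preincubated 5 min at room temperature with compound in 50 mM Tris, 1 M NaCl, pH 7.5. Z-L-Lys-SBzl thioester substrate and DTNB added (100 μM each, final); A405 read every 30 s for 30 min. IC50 from nonlinear regression of reaction rates against compound concentration.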

[1] = Human C1s enzyme assay of Example 3
[2] = Human complement C1s enzyme 1.16 nM, substrate Z-L-Lys-SBzl 100 μM, assay of Example 3
[3] = Human complement C1s enzyme 1.16 nM, substrate Z-L-Lys-SBzl, assay of Example 3

Sequence of Human complement C1s enzyme (P09871 438-688 limits assumed): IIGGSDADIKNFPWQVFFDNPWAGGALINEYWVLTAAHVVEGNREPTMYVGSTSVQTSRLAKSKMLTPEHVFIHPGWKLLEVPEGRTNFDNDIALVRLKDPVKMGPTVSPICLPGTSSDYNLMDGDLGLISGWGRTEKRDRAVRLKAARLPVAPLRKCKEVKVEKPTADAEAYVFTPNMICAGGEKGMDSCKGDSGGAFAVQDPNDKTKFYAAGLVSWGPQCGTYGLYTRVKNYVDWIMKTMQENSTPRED
Sequence of Human complement C1s enzyme (P09871 16-437 partner limits assumed): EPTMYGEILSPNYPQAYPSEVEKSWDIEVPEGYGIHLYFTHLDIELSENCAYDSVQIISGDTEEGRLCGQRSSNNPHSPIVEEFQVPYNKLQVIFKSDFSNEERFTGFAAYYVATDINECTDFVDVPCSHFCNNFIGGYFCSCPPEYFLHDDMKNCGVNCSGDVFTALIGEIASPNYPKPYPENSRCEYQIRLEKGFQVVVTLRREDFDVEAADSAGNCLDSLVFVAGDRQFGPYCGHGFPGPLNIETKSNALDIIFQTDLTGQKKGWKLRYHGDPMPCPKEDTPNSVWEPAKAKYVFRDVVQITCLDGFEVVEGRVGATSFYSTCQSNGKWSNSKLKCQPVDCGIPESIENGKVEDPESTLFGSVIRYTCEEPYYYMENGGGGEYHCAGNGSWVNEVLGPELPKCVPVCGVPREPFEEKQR

| Compound | pIC50 [1] | pIC50 [2] | also measured |
| --- | --- | --- | --- |
| Cc1ccc(Oc2ccc(C(=O)NCC(=O)N3[C@H]4C[C@@]4(C)C[C@H]3C(=O)N[C@H](C)c3ccc(C(=N)N)s3)cc2)cc1 [Compound 26, (1S,3S,5S)—N—((R)-1-(5-carbamimidoylthiophen-2-yl)ethyl)-5-methyl-2-((4-(p-tolyloxy)benzoyl)glycyl)-2-azabicyclo[3.1.0]hexane-3-carboxamide] | > 7.00 | – | – |
| C[C@@H](NC(=O)[C@@H]1C[C@](F)(CF)CN1C(=O)CNC(=O)c1ccc2[nH]c3ccccc3c2c1)c1cc(C(=N)N)cs1 [Compound 341, N-(2-((2S,4R)-2-(((R)-1-(4-carbamimidoylthiophen-2-yl)ethyl)carbamoyl)-4-fluoro-4-(fluoromethyl)pyrrolidin-1-yl)-2-oxoethyl)-9H-carbazole-3-carboxamide] | – | > 7.00 | – |
| COC[C@@]1(F)C[C@@H](C(=O)N[C@H](C)c2cc(C(=N)N)cs2)N(C(=O)CNC(=O)c2ccc3c(c2)-c2ccccc2S3(=O)=O)C1 [Compound 393, (2S,4R)—N—((R)-1-(4-carbamimidoylthiophen-2-yl)ethyl)-1-((5,5-dioxidodibenzo[b,d]thiophene-2-carbonyl)glycyl)-4-fluoro-4-(methoxymethyl) pyrrolidine-2-carboxamide] | – | > 7.00 | – |
| C[C@H](NC(=O)c1ccc(-c2ccc(F)cc2)cc1)C(=O)N1CC2(C[C@H]1C(=O)NCc1cc(C(=N)N)cs1)OCCO2 [Compound 296, (S)—N-((4-carbamimidoylthiophen-2-yl)methyl)-7-((4′-fluoro-[1,1′-biphenyl]-4-carbonyl)-L-alanyl)-1,4-dioxa-7-azaspiro[4.4]nonane-8-carboxamide] | – | > 7.00 | – |
| CO[C@@H]1C[C@@H](C(=O)N[C@H](C)c2cc(C(=N)N)cs2)N(C(=O)CNC(=O)c2ccc(Oc3ccc(F)cc3)cc2)C1 [Compound 70, (2S,4R)—N—((R)-1-(4-carbamimidoylthiophen-2-yl)ethyl)-1-((4-(4-fluorophenoxy)benzoyl)glycyl)-4-methoxypyrrolidine-2-carboxamide] | > 7.00 | – | – |
| C[C@@H](NC(=O)[C@@H]1C[C@@H](OC(F)F)CN1C(=O)CNC(=O)c1ccc2oc3ccccc3c2c1)c1cc(C(=N)N)cs1 [Compound 205, (2S,4R)—N—((R)-1-(4-carbamimidoylthiophen-2-yl)ethyl)-1-((dibenzo[b,d]furan-2-carbonyl)glycyl)-4-(difluoromethoxy)pyrrolidine-2-carboxamide] | – | > 7.00 | – |
| C[C@@H](NC(=O)[C@@H]1CC2(CN1C(=O)CNC(=O)c1ncc(-c3ccc(F)cc3F)cc1F)OCCO2)c1cc(C(=N)N)cs1 [Compound 356, (S)—N—((R)-1-(4-carbamimidoylthiophen-2-yl)ethyl)-7-((5-(2,4-difluorophenyl)-3-fluoropicolinoyl)glycyl)-1,4-dioxa-7-azaspiro[4.4]nonane-8-carboxamide] | – | > 7.00 | – |
| N=C(N)c1csc(CNC(=O)[C@@H]2CC3(CN2C(=O)CNC(=O)c2ccc(-c4cnc5[nH]ccc5c4)cc2)OCCO3)c1 [Compound 195, (S)-7-((4-(1H-pyrrolo[2,3-b]pyridin-5-yl)benzoyl)glycyl)-N-((4-carbamimidoylthiophen-2-yl)methyl)-1,4-dioxa-7-azaspiro[4.4]nonane-8-carboxamide] | > 7.00 | – | – |
| C[C@@H](NC(=O)[C@@H]1C[C@@H](OC(F)F)CN1C(=O)CNC(=O)c1ccc2c(c1)C(C)(C)c1ccccc1-2)c1cc(C(=N)N)cs1 [Compound 348, (2S,4R)-N-((R)-1-(4-carbamimidoylthiophen-2-yl)ethyl)-4-(difluoromethoxy)-1-((9,9-dimethyl-9H-fluorene-2-carbonyl)glycyl) pyrrolidine-2-carboxamide] | – | > 7.00 | – |
| CS(=O)(=O)[C@@H]1C[C@@H](C(=O)N[C@H](CO)c2cc(C(=N)N)cs2)N(C(=O)CNC(=O)c2cccc(-c3ccc(F)cc3)c2)C1 [Compound 402, (2S,4R)—N—((R)-1-(4-carbamimidoylthiophen-2-yl)-2-hydroxyethyl)-1-((4′-fluoro-[1,1′-biphenyl]-3-carbonyl)glycyl)-4-(methylsulfonyl)pyrrolidine-2-carboxamide] | – | – | pIC50 [3]: > 7.00 |
| Nc1csc(CNC(=O)[C@@H]2CC3(CN2C(=O)CNC(=O)c2ccc(Oc4ccc(F)cc4)cc2)OCCO3)c1 [Compound 244, (S)—N-((4-aminothiophen-2-yl)methyl)-7-((4-(4-fluorophenoxy)benzoyl)glycyl)-1,4-dioxa-7-azaspiro[4.4]nonane-8-carboxamide] | – | < 6.00 | – |
| C[C@@H](NC(=O)[C@@H]1CC2(CN1C(=O)CNC(=O)c1ccc(Oc3ccc(F)cc3)cc1)OCCO2)c1cc(C(=N)N)cs1 [Compound 23, (S)—N—((R)-1-(4-carbamimidoylthiophen-2-yl)ethyl)-7-((4-(4-fluorophenoxy)benzoyl)glycyl)-1,4-dioxa-7-azaspiro[4.4]nonane-8-carboxamide] | > 7.00 | – | – |
| CC1c2ccccc2-c2cc(C(=O)NCC(=O)N3CC4(C[C@H]3C(=O)N[C@H](C)c3cc(C(=N)N)cs3)OCCO4)ccc21 (stereo partly drawn) [Compound 99, (8S)—N-[(1R)-1-(4-carbamimidoylthiophen-2-yl)ethyl]-7-{2-[(9-methyl-9H-fluoren-3-yl)formamido]acetyl}-1,4-dioxa-7-azaspiro[4.4]nonane-8-carboxamide] | > 7.00 | – | – |
| C[C@@H](NC(=O)[C@@H]1C[C@H](c2cccnc2)CN1C(=O)CNC(=O)c1ccc2c(c1)-c1ccccc1C2(F)F)c1cc(C(=N)N)cs1 [Compound 355, (2S,4R)—N—((R)-1-(4-carbamimidoylthiophen-2-yl)ethyl)-1-((9,9-difluoro-9H-fluorene-3-carbonyl)glycyl)-4-(pyridin-3-yl)pyrrolidine-2-carboxamide] | – | > 7.00 | – |
| N=C(N)c1csc(CNC(=O)[C@@H]2CC3(CN2C(=O)CNC(=O)c2ccc4c(c2)-c2ccccc2C4=O)OCCO3)c1 [Compound 88, (S)—N-((4-carbamimidoylthiophen-2-yl)methyl)-7-((9-oxo-9H-fluorene-3-carbonyl)glycyl)-1,4-dioxa-7-azaspiro[4.4]nonane-8-carboxamide] | > 7.00 | – | – |
| CCCCCCOC(=O)/N=C(/N)c1csc([C@@H](C)NC(=O)[C@@H]2C[C@](F)(CF)CN2C(=O)CNC(=O)c2ccc(Oc3ccc(F)cc3)cc2)c1 [Compound 234, hexyl ((E)-amino(5-((R)-1-((2S,4R)-4-fluoro-4-(fluoromethyl)-1-((4-(4-fluorophenoxy)benzoyl)glycyl)pyrrolidine-2-carboxamido)ethyl)thiophen-3-yl)methylene)carbamate] | – | > 7.00 | – |
| C[C@@H](NC(=O)[C@@H]1CC2(CN1C(=O)CNC(=O)c1ccc3c(c1)-c1ccccc1C3(F)F)OCCO2)c1cc(-c2cocn2)cs1 [Compound 129, (8S)-7-{2-[(9,9-difluorofluoren-3-yl)formamido]acetyl}-N-[(1R)-1-[4-(1,3-oxazol-4-yl)thiophen-2-yl]ethyl]-1,4-dioxa-7-azaspiro[4.4]nonane-8-carboxamide] | < 6.00 | – | – |
| C[C@@H](NC(=O)[C@@H]1C[C@H](C2CCCCC2)CN1C(=O)CNC(=O)c1ccc2c(c1)-c1ccccc1C2(F)F)c1cc(C(=N)N)cs1 [Compound 98, (2S,4R)—N—((R)-1-(4-carbamimidoylthiophen-2-yl)ethyl)-4-cyclohexyl-1-((9,9-difluoro-9H-fluorene-3-carbonyl)glycyl)pyrrolidine-2-carboxamide] | > 7.00 | – | – |
| C[C@H]1C[C@@H](C(=O)N[C@H](C)c2cc(C(=N)N)cs2)N(C(=O)CNC(=O)c2ccc(Oc3ccc(F)cc3)cc2)C1 [Compound 45, (2S,4S)—N—((R)-1-(4-carbamimidoylthiophen-2-yl)ethyl)-1-((4-(4-fluorophenoxy)benzoyl)glycyl)-4-methylpyrrolidine-2-carboxamide] | > 7.00 | – | – |
| N=C(N)c1csc(CNC(=O)[C@@H]2CC3(CN2C(=O)CN2Cc4ccc(-c5ccc(F)cc5F)cc4C2)OCCO3)c1 [Compound 287, (S)—N-((4-carbamimidoylthiophen-2-yl)methyl)-7-(2-(5-(2,4-difluorophenyl)isoindolin-2-yl)acetyl)-1,4-dioxa-7-azaspiro[4.4]nonane-8-carboxamide] | – | > 7.00 | – |
| CC1(C)c2ccccc2-c2cc(C(=O)NCC(=O)N3C[C@H](OC(F)F)C[C@H]3C(=O)N[C@H](CO)c3cc(C(=N)N)cs3)ccc21 [Compound 413, (2S,4R)—N—((R)-1-(4-carbamimidoylthiophen-2-yl)-2-hydroxyethyl)-4-(difluoromethoxy)-1-((9,9-dimethyl-9H-fluorene-3-carbonyl)glycyl) pyrrolidine-2-carboxamide] | – | – | pIC50 [3]: > 7.00 |
| C[C@@H](NC(=O)[C@@H]1CC2(CN1C(=O)CNC(=O)c1ccc(Oc3ccc(F)cc3)cc1)OCCO2)c1ccc(C(=N)N)s1 [Compound 85, (S)—N—((R)-1-(5-carbamimidoylthiophen-2-yl)ethyl)-7-((4-(4-fluorophenoxy)benzoyl)glycyl)-1,4-dioxa-7-azaspiro[4.4]nonane-8-carboxamide] | > 7.00 | – | – |
| Cc1cc(C(=O)NCC(=O)N2[C@H]3C[C@@]3(C)C[C@H]2C(=O)N[C@H](C)c2cc(C(=N)N)cs2)ccc1Oc1ccc(F)cc1 [Compound 27, (1S,3S,5S)—N—((R)-1-(4-carbamimidoylthiophen-2-yl)ethyl)-2-((4-(4-fluorophenoxy)-3-methylbenzoyl)glycyl)-5-methyl-2-azabicyclo[3.1.0]hexane-3-carboxamide] | > 7.00 | – | – |
| Cc1ccc(Oc2ccc(C(=O)NCC(=O)N3CC4(C[C@H]3C(=O)N[C@H](C)c3cc(C(=N)N)cs3)OCCO4)cc2)cc1 [Compound 22, (S)—N—((R)-1-(4-carbamimidoylthiophen-2-yl)ethyl)-7-((4-(p-tolyloxy)benzoyl)glycyl)-1,4-dioxa-7-azaspiro[4.4]nonane-8-carboxamide] | > 7.00 | – | – |
